Measured values reported in ChEMBL document CHEMBL6120969, “Distinctive Immune Signatures Driven by Structural Alterations in Desmuramylpeptide NOD2 Agonists” (J Med Chem, 2024).
The source made the active and inactive calls. The rule behind the calls is not given here.

Legend:
[1] = Cytotoxicity against human HEK-Blue hNOD2 cells assessed as metabolic activity at 10 uM incubated for 18 hes by MTT assay; assay type: toxicity, cell-based; conditions: hek-blue hnod2, 10 µM
PBMC [2] = test: Immunomodulatory activity in human PBMC cells assessed as increase in IL-4 level at 2 uM incubated for 18 hrs y flow cytometry analysis; assay type: functional, cell-based
Summary of the method: (§1)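 Human donor PBMCs (Ficoll-Paque; 1 × 10^6 cells/mL, 500 μL, 48-well plates) were treated with compounds at 2 μM or 0.1% DMSO vehicle without LPS for 18 h at 37 °C, 5% CO2. Cytokines in cell-free supernatants were quantified with the LEGENDplex Human Essential Immune Response Panel on a flow cytometer against kit recombinant standard curves. Four independent replicates; two-way ANOVA with Tukey's test.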

PBMC [3] = test: Immunomodulatory activity in human PBMC cells assessed as increase in IL-2 level at 2 uM incubated for 18 hrs y flow cytometry analysis; assay type: functional, cell-based; summary of the method: as §1
PBMC [4] = test: Immunomodulatory activity in human PBMC cells assessed as increase in IP-10 level at 2 uM incubated for 18 hrs y flow cytometry analysis; assay type: functional, cell-based; summary of the method: as §1
PBMC [5] = test: Immunomodulatory activity in human PBMC cells assessed as increase in IL-1beta level at 2 uM incubated for 18 hrs y flow cytometry analysis; assay type: functional, cell-based; summary of the method: as §1
PBMC [6] = test: Immunomodulatory activity in human PBMC cells assessed as increase in TNF-alpha level at 2 uM incubated for 18 hrs y flow cytometry analysis; assay type: functional, cell-based; summary of the method: as §1
PBMC [7] = test: Immunomodulatory activity in human PBMC cells assessed as increase in MCP-1 level at 2 uM incubated for 18 hrs y flow cytometry analysis; assay type: functional, cell-based; summary of the method: as §1
PBMC [8] = test: Immunomodulatory activity in human PBMC cells assessed as increase in IL-17A level at 2 uM incubated for 18 hrs y flow cytometry analysis; assay type: functional, cell-based; summary of the method: as §1
PBMC [9] = test: Immunomodulatory activity in human PBMC cells assessed as increase in IL-6 level at 2 uM incubated for 18 hrs y flow cytometry analysis; assay type: functional, cell-based; summary of the method: as §1
PBMC [10] = test: Immunomodulatory activity in human PBMC cells assessed as increase in IL-10 level at 2 uM incubated for 18 hrs y flow cytometry analysis; assay type: functional, cell-based; summary of the method: as §1
PBMC [11] = test: Immunomodulatory activity in human PBMC cells assessed as increase in IFN-gamma level at 2 uM incubated for 18 hrs y flow cytometry analysis; assay type: functional, cell-based; summary of the method: as §1
PBMC [12] = test: Immunomodulatory activity in human PBMC cells assessed as increase in IL-12p70 level at 2 uM incubated for 18 hrs y flow cytometry analysis; assay type: functional, cell-based; summary of the method: as §1
PBMC [13] = test: Immunomodulatory activity in human PBMC cells assessed as increase in IL-8 level at 2 uM incubated for 18 hrs y flow cytometry analysis; assay type: functional, cell-based; summary of the method: as §1
PBMC [14] = test: Immunomodulatory activity in human PBMC cells assessed as increase in TGF-beta1 level at 2 uM incubated for 18 hrs y flow cytometry analysis; assay type: functional, cell-based; summary of the method: as §1
PBMC [15] = test: Immunomodulatory activity in human PBMC cells assessed as increase in LPS-induced IL-1beta level at 2 uM incubated for 18 hrs y flow cytometry analysis; assay type: functional, cell-based
PBMC [16] = test: Immunomodulatory activity in human PBMC cells assessed as increase in LPS-induced IL-6 level at 2 uM incubated for 18 hrs y flow cytometry analysis; assay type: functional, cell-based
Summary of the method: (§2)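 Peripheral blood mononuclear cells from human donors were isolated with Ficoll-Paque and plated in 48-well plates at 1 × 10^6 cells/mL, 500 μL per well. Cells received compounds at 2 μM or 0.1% DMSO together with LPS (10 ng/mL) and were kept for 18 h at 37 °C, 5% CO2. Cytokine levels in cell-free supernatants were measured by flow cytometry with the LEGENDplex Human Essential Immune Response Panel, using the kit's recombinant standard curves. Data come from four independent replicates analysed by two-way ANOVA with Tukey's test.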

PBMC [17] = test: Immunomodulatory activity in human PBMC cells assessed as increase in LPS-induced IL-10 level at 2 uM incubated for 18 hrs y flow cytometry analysis; assay type: functional, cell-based; summary of the method: as §2
PBMC [18] = test: Immunomodulatory activity in human PBMC cells assessed as increase in LPS-induced TNF-alpha level at 2 uM incubated for 18 hrs y flow cytometry analysis; assay type: functional, cell-based
PBMC [19] = test: Immunomodulatory activity in human PBMC cells assessed as increase in LPS-induced IL-12p70 level at 2 uM incubated for 18 hrs y flow cytometry analysis; assay type: functional, cell-based
PBMC [20] = test: Immunomodulatory activity in human PBMC cells assessed as increase in LPS-induced IFN-gamma level at 2 uM incubated for 18 hrs y flow cytometry analysis; assay type: functional, cell-based
PBMC [21] = test: Immunomodulatory activity in human PBMC cells assessed as increase in LPS-induced MCP-1 level at 2 uM incubated for 18 hrs y flow cytometry analysis; assay type: functional, cell-based; summary of the method: as §2
PBMC [22] = test: Immunomodulatory activity in human PBMC cells assessed as increase in LPS-induced IP-10 level at 2 uM incubated for 18 hrs y flow cytometry analysis; assay type: functional, cell-based; summary of the method: as §2
PBMC [23] = test: Cytotoxicity against human PBMC cells co-cultured with human K562 cells at 10 uM incubated for 4 hrs; assay type: functional, cell-based
Summary of the method: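 Killing was scored as the share of K562 cells positive for both CFSE and Sytox blue. Human PBMCs were seeded in 96-well plates at 4 × 10^5 per well and pretreated for 18 h with compounds at 10 μM, with 0.1% DMSO as vehicle. CFSE-stained K562 cells were then added at 1 × 10^4 per well (effector:target 40:1) for 4 h at 37 °C, 5% CO2, before Sytox blue staining and reading on an Attune NxT flow cytometer. Assays ran in duplicate across three independent biological replicates and were analysed by one-way ANOVA with Dunnett's test.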

[24] = Cytotoxicity against human PBMC cells at 10 uM incubated for 4 hrs; assay type: toxicity, cell-based
Summary of the method: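 Direct cytotoxicity was scored as the fraction of Sytox blue-positive cells among human PBMCs cultured without other cells. The PBMCs were exposed to compounds at 10 μM, with 0.1% DMSO as vehicle, alongside a K562 killing assay, then stained with Sytox blue dead cell stain and run on an Attune NxT flow cytometer, with analysis in FlowJo. Each condition was tested in duplicate across three independent biological replicates, and one-way ANOVA with Dunnett's test was applied.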

[25] = Cytotoxicity against human PBMC cells at 10 uM incubated for 4 hrs in presence of MDP; assay type: toxicity, cell-based
BMDC [26] = test: Adjuvant activity in OVA-immunized C57BL/6J mouse BMDC cells assessed as increase in CD4+ T cell activation incubated for 18 hrs; assay type: functional, cell-based
Summary of the method: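 Dendritic cells were derived from C57BL/6 mouse bone marrow by 7 days of culture with GM-CSF, then pretreated for 18 h with compounds at 10 μM together with 50 μg/mL ovalbumin and washed. These cells (1 × 10^4/well) were co-cultured with 5 × 10^4 CFSE-labelled OT II CD4+ T cells for 72 h at 37 °C in 5% CO2. T-cell activation was assessed by flow cytometry on live Thy1.2+/CD4+ cells, using CFSE dilution and CD25 expression as readouts. Assays were run in duplicate across two independent biological replicates and analysed with paired t tests.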

BMDC [27] = test: Adjuvant activity in OVA-immunized C57BL/6J mouse BMDC cells co-cultured with mouse CD4+ T cells assessed as increase in IL-2 level at 10 uM incubated for 18 hrs; assay type: functional, cell-based
BMDC [28] = test: Adjuvant activity in OVA-immunized C57BL/6J mouse BMDC cells co-cultured with mouse CD4+ T cells assessed as increase in IL-9 level at 10 uM incubated for 18 hrs; assay type: functional, cell-based
BMDC [29] = test: Adjuvant activity in OVA-immunized C57BL/6J mouse BMDC cells co-cultured with mouse CD8+ T cells assessed as increase in IL-6 production at 10 uM incubated for 18 hrs by flow cytometry analysis; assay type: functional, cell-based
BMDC [30] = test: Adjuvant activity in OVA-immunized C57BL/6J mouse BMDC cells co-cultured with mouse CD8+ T cells assessed as reduction in IFN-gamma production at 10 uM incubated for 18 hrs by flow cytometry analysis; assay type: functional, cell-based
BMDC [31] = test: Adjuvant activity in OVA-immunized C57BL/6J mouse BMDC cells co-cultured with mouse CD4+ T cells assessed as reduction in IFN-gamma production at 10 uM incubated for 18 hrs by flow cytometry analysis; assay type: functional, cell-based
BMDC [32] = test: Adjuvant activity in OVA-immunized C57BL/6J mouse BMDC cells co-cultured with mouse CD4+ T cells assessed as increase in IL-4 production at 10 uM incubated for 18 hrs by flow cytometry analysis; assay type: functional, cell-based
[33] = Anti-inflammatory activity in human PBMC cells assessed as increase in percentage of non classical monocytes at 10 uM incubated for 18 hrs by flow cytometry analysis; assay type: functional
[34] = Anti-inflammatory activity in human PBMC cells assessed as increase in percentage of intermediate monocytes at 10 uM incubated for 18 hrs by flow cytometry analysis; assay type: functional
[35] = Anti-inflammatory activity in human PBMC cells assessed as increase in percentage of classical monocytes at 10 uM incubated for 18 hrs by flow cytometry analysis; assay type: functional
BMDC [36] = test: Adjuvant activity in OVA-immunized C57BL/6J mouse BMDC cells co-cultured with mouse CD4+ T cells assessed as increase in IL-6 production at 10 uM incubated for 18 hrs by flow cytometry analysis; assay type: functional, cell-based
BMDC [37] = test: Adjuvant activity in OVA-immunized C57BL/6J mouse BMDC cells co-cultured with mouse CD8+ T cells assessed as increase in IL-9 production at 10 uM incubated for 18 hrs by flow cytometry analysis; assay type: functional, cell-based

Structure (SMILES)	Activity [1]	Activity (PBMC [2])	Activity (PBMC [3])	Activity (PBMC [4])	Activity (PBMC [5])	Activity (PBMC [6])	Activity (PBMC [7])	Activity (PBMC [8])	Activity (PBMC [9])	Activity (PBMC [10])	Activity (PBMC [11])	Activity (PBMC [12])	Activity (PBMC [13])	Activity (PBMC [14])	Activity (PBMC [15])	Activity (PBMC [16])	Activity (PBMC [17])	Activity (PBMC [18])	Activity (PBMC [19])	Activity (PBMC [20])	other results
CC/C=C\C/C=C\C/C=C\C/C=C\C/C=C\CCCC(=O)Oc1ccc(/C=C/C(=O)NCC(=O)N[C@H](C(=O)N[C@H](CCC(=O)OCC)C(=O)OCC)C(C)C)cc1OC	Non-toxic	Active	Active	Active	Active	Active	Active	Active	Active	Active	Active	Active	Active	Active	Active	Active	Active	Active	Active	Active	Activity (PBMC [21]): Active; Activity (PBMC [22]): Active; Activity (PBMC [23]): inactive; Activity [24]: Non-toxic; Activity [25]: Non-toxic; Activity (BMDC [26]): Active; Activity (BMDC [27]): Active; Activity (BMDC [28]): Active; Activity (BMDC [29]): Active; Activity (BMDC [30]): Active; Activity (BMDC [31]): Active; Activity (BMDC [32]): Active
CCOC(=O)CC[C@@H](NC(=O)[C@@H](NC(=O)CNC(=O)/C=C/c1ccc(OC(=O)CO[C@H]2CC[C@@]3(C)C(=CC[C@H]4[C@@H]5CC[C@H]([C@H](C)CCCC(C)C)[C@@]5(C)CC[C@@H]43)C2)c(OC)c1)C(C)C)C(=O)OCC	Non-toxic	Active	Active	Active	Active	Active	Active	Active	Active	Active	Active	Active	Active	Active	Active	Active	Active	Active	Active	Active	Activity (PBMC [21]): Active; Activity (PBMC [22]): Active; Activity (PBMC [23]): Active; Activity [24]: Moderate_effect; Activity [33]: 76.6%; Activity [34]: 4.53%; Activity [35]: 0.35%; Activity (BMDC [26]): Active; Activity (BMDC [27]): Active; Activity (BMDC [28]): Active; Activity (BMDC [36]): Active; Activity (BMDC [37]): Active
CCCC(=O)Oc1ccc(/C=C/C(=O)NCC(=O)N[C@H](C(=O)N[C@H](CCC(=O)OCC)C(=O)OCC)C(C)C)cc1OC	Non-toxic	Active	Active	Active	Active	Active	Active	Active	Active	Active	Active	Active	Active	Active	Active	Active	Active	Active	Active	Active	Activity (PBMC [21]): Active; Activity (PBMC [22]): Active; Activity (PBMC [23]): inactive; Activity [24]: Non-toxic; Activity [25]: Non-toxic; Activity (BMDC [26]): Active; Activity (BMDC [27]): Active; Activity (BMDC [28]): Active; Activity (BMDC [29]): Active; Activity (BMDC [30]): Active; Activity (BMDC [31]): Active; Activity (BMDC [32]): Active
CCOC(=O)[C@@H](CCC(=O)NC12C[C@H]3C[C@@H](C1)C[C@@H](C2)C3)NC(=O)[C@@H](NC(=O)CNC(=O)/C=C/c1ccc(O)c(OC)c1)C(C)C	Non-toxic	Active	Active	Active	Active	Active	Active	Active	Active	Active	Active	Active	Active	Active	Active	Active	Active	Active	Active	Active	Activity (PBMC [21]): Active; Activity (PBMC [22]): Active; Activity (PBMC [23]): inactive; Activity [24]: Non-toxic; Activity [25]: Non-toxic; Activity (BMDC [26]): Active; Activity (BMDC [27]): Active; Activity (BMDC [28]): Active; Activity (BMDC [36]): Active; Activity (BMDC [29]): Active; Activity (BMDC [37]): Active; Activity (BMDC [30]): Active; Activity (BMDC [31]): Active; Activity (BMDC [32]): Active
